Source: patent publication US20140341813A1, “INDOCYANINE GREEN-CONTAINING PARTICLE AND METHOD OF PRODUCING THE PARTICLE” (CANON KABUSHIKI KAISHA, priority 2013, published 2014)

Key:
rat [1] = experiment: Urea 50% lethal dose LD50, oral
Water solubility of urea = format: physicochemical; conditions: calculated from water solubility and molecular weight 60.06
rat [2] = conditions: intravenous injection; cited from earlier work
[3] = Spectral shift of ICG aqueous solutions before and after heating (J-aggregate formation and suppression); format: physicochemical
Protocol: FIG. 4 and FIG. 5 show the results of wavelength shifts based on additive concentration series. […] The axis of abscissa of each square indicates a wavelength, and values at its left and right ends are 500 nm and 950 nm, respectively, and the axis of ordinate thereof indicates an absorbance and its scale is arbitrary. The additive in this case refers to urea.
A third square from the left end corresponds to a solution to which the additive is added at a concentration one-half as high as that of the second square.
A second square from the left end corresponds to a 1.5 mM ICG aqueous solution, and an upper stage and a lower stage show spectra before and after the heating, respectively. A third square corresponds to an ICG aqueous solution having a concentration one-half as high as that of the second square.

rat [4] = conditions: oral; cited from earlier work
mouse = conditions: intravenous injection; cited from earlier work

Row | J-aggregate formation of ICG in citric acid after heating ([3]; 1.5 mM ICG, citric acid 100 mM or less, free of urea, 60° C. for 30 minutes) | citric acid concentration above which agglomeration precipitation occurs ([3]; 1.5 mM ICG, free of urea, 60° C. for 30 minutes) | Structure (SMILES) | ratio of urea amount in 10 ml of injection at 10 M to LD50 in terms of a body weight of 50 kg (rat [1]; 6.006 g/425 g) | 50% lethal dose converted in terms of a body weight of 50 kg (rat [1]; 8.5 g/kg × 50 kg) [g] | amount of urea that dissolves (molar) (Water solubility of urea) | LD50 (rat [2]) | J-aggregation of ICG after heating with urea added ([3]; 1.5 mM ICG aqueous solution + 100 mM urea, heating at 60° C. for 30 minutes) | formation of the H-aggregate of ICG (absorption around 700 nm) with urea added ([3]; 1.5 mM ICG, urea added) | 50% lethal dose LD50 (rat [4]) | LD50 (mouse)
1 |  |  | NC(N)=O [urea] | 1.41×10^−2 | 425 | up to 17.9 M | around 5,000 mg/kg | the J-aggregation is suppressed | suppresses the formation of the H-aggregate | 8,500 mg/kg | around 5,000 mg/kg
2 | a J-aggregate is formed | higher than 12.5 mM | O=C(O)CC(O)(CC(=O)O)C(=O)O [citric acid] |  |  |  |  |  |  |  | 
